Results taken from patent US20110039879A1, “METHODS FOR INCREASING WHITE BLOOD CELLS” (FibroGen ,Inc., priority 2007, published 2011).
Marks after values point to notes of the source that are not given here.

Key:
lymphocytes [1] = test: Chemotherapy (cisplatin)-induced leukopenia, lymphocytes by CBC; assay type: in vivo, Sprague Dawley rats; conditions: rats, blood day 4; for Lymphocytes % Change from Control: vs healthy control
Method: (§1) To examine the effect of compounds and methods of the present invention on increasing white blood cells, the following studies were performed. In one series of experiments, male Swiss-Webster mice were administered various compounds of the present invention via oral gavage using a ball-tipped gavage needle. Animals treated by oral gavage received a 10 ml/kg volume of either 0.5% carboxymethyl cellulose (CMC) with 0.1% Polysorbate 80 (vehicle control) or various doses (10-100 mg/kg) of a compound of the present invention in 0.5% CMC with 0.1% Polysorbate 80. Animals were dosed once daily for 3 or 4 days. […] The following study was performed to examine the effect of compounds and methods of the present invention on treatment of chemotherapy-induced leukopenia. Thirty-eight Sprague Dawley male rats (280-300 g) were obtained from Charles River Laboratories. Six rats served as healthy controls. On day 0, the remaining thirty-two rats were treated by intravenous injection (i.v.) with a single dose of cisplatin (CP) (Bedford Laboratories, Bedford Ohio) at 5 mg/kg and by oral gavage with one of the following: Compound S at 60 mg/kg; Compound B at 40 mg/kg; or vehicle 2 ml/kg. Compound was administered on day 0, day 2, and day 4 with the first dose given two hours before the CP injection. Blood samples (0.2 ml) were collected on day 4 as follows. Animals were anesthetized with isoflurane and 0.2 ml of blood was collected from the tail vein into a MICROTAINER EDTA-2K tube (Becton-Dickinson). Blood samples were processed to measure total white blood cell, neutrophil, and lymphocyte levels by CBC analysis as described above in Example 3.

[2] = tested on: total white blood cell (WBC); test: Chemotherapy (cisplatin)-induced leukopenia, total WBC by CBC; assay type: in vivo, Sprague Dawley rats; conditions: rats; for total white blood cell levels in the cisplatin-treated animals (in words): Compound S 60 mg/kg or Compound B 40 mg/kg oral gavage day 0, 2, 4; for Total WBC / Total WBC % Change from Control: blood day 4; for Total WBC % Change from Control: vs healthy control
Method: as §1

neutrophils [3] = test: Chemotherapy (cisplatin)-induced leukopenia, neutrophils by CBC; assay type: in vivo, Sprague Dawley rats; conditions: rats, blood day 4; for Neutrophils % Change from Control: vs healthy control
Method: as §1

[4] = tested on: neutrophils in bone marrow; test: Neutrophils in bone marrow by FACS analysis; assay type: in vivo, Swiss-Webster mice; conditions: mice, oral gavage, tibia bone marrow 6 h after final dosing
Method: (§2) Six hours after the final dosing, 200 μl blood samples were collected for detection of hematopoietic progenitor cells (HPCs) and neutrophils by FACS analysis using methods previously described. (See, e.g., Wang et al. (1997) J Leukoc Biol 62 503-9 and Legasse et al. (1996) J Immunol Methods 197:139-50.) Briefly, leukocytes and progenitor cells were isolated from whole blood samples following erythrocyte depletion using red blood cell lysis buffer (eBioscience) according to the manufacturer's instructions. The remaining cells were incubated for one hour with monoclonal antibodies directed against mouse Sca-1 and mouse c-Kit (cell surface markers for HPCs, BD Pharmingen), or mouse Mac-1 and mouse Gr-1 (cell surface markers for murine neutrophils, BD Pharmingen). Following incubation with the monoclonal antibodies, the cells were washed three times with sort buffer (PBS, 1% fetal bovine serum) and resuspended in sort buffer containing 50 μg/ml of propidium iodide. Samples were then analyzed for the presence and quantitation of HPCs and neutrophils by flow cytometry (FACS Calibur, Becton Dickinson). The cytometer was set to acquire 10 000 events. Two or three blood samples obtained from each animal were analyzed and the average recorded. Hematopoietic progenitor cells were determined as double positive Sca-1+/c-Kit+ cells and neutrophils were determined as double positive Mac-1+/Gr-1+ cells.
(§3) To examine the effect of compounds and methods of the present invention on hematopoietic progenitor cell (HPC) and neutrophil levels in bone marrow, the following studies were performed. Male Swiss-Webster mice were administered various compounds of the present invention via oral gavage using a ball-tipped gavage needle. Animals treated by oral gavage received a 10 ml/kg volume of either 0.5% carboxymethyl cellulose (CMC) with 0.1% Polysorbate 80 (vehicle control) or various doses (10-100 mg/kg) of a compound of the present invention in 0.5% CMC with 0.1% Polysorbate 80. Animals were dosed once daily for 3 or 4 days. Six hours after the final dosing, bone marrow samples were taken from one tibia of each animal and suspended in buffer (PBS with 1% fetal bovine serum). Bone marrow suspensions were then filtered through nylon filters to remove stromal cells. Following filtration, the remaining cells were counted manually using a hemocytometer. Detection and quantitation of HPCs and neutrophils were performed by FACS analysis as described above in Example 1.

lymphocytes [5] = test: Lymphocytes by complete blood count, once daily dosing 3 or 4 days; assay type: in vivo, Swiss-Webster mice; conditions: mice, oral gavage, blood 6 h after final dosing, CBC
Method: (§4) To examine the effect of compounds and methods of the present invention on increasing white blood cells, the following studies were performed. In one series of experiments, male Swiss-Webster mice were administered various compounds of the present invention via oral gavage using a ball-tipped gavage needle. Animals treated by oral gavage received a 10 ml/kg volume of either 0.5% carboxymethyl cellulose (CMC) with 0.1% Polysorbate 80 (vehicle control) or various doses (10-100 mg/kg) of a compound of the present invention in 0.5% CMC with 0.1% Polysorbate 80. Animals were dosed once daily for 3 or 4 days. Six hours after the final dosing, 200 μl blood samples were collected and total white blood cell, neutrophil, and lymphocyte levels were measured by complete blood count (CBC) using a CellDyn cell analyzer (Abbott Laboratories).

neutrophils [6] = test: Neutrophils by complete blood count, once daily dosing 3 or 4 days; assay type: in vivo, Swiss-Webster mice; conditions: mice, oral gavage, blood 6 h after final dosing, CBC
Method: as §4

[7] = tested on: hematopoietic progenitor cells (HPCs); test: Hematopoietic progenitor cells (Sca-1+/c-Kit+) in blood by FACS analysis; assay type: in vivo, Swiss-Webster mice; conditions: mice, oral gavage, blood 6 h after final dosing
Method: (§5) To examine the effect of compounds and methods of the present invention on hematopoietic progenitor cell (HPC) and neutrophil levels, the following studies were performed. Male Swiss-Webster mice were administered various compounds of the present invention via oral gavage using a ball-tipped gavage needle. Animals treated by oral gavage received a 10 ml/kg volume of either 0.5% carboxymethyl cellulose (CMC) with 0.1% Polysorbate 80 (vehicle control) or various doses (10-100 mg/kg) of a compound of the present invention in 0.5% CMC with 0.1% Polysorbate 80. Animals were dosed once daily for 3 or 4 days.
as §2

[8] = tested on: hematopoietic progenitor cells (HPCs) in bone marrow; test: Hematopoietic progenitor cells in bone marrow by FACS analysis; assay type: in vivo, Swiss-Webster mice; conditions: mice, oral gavage, tibia bone marrow 6 h after final dosing
Method: as §2, §3

[9] = tested on: total white blood cell (WBC); test: Total white blood cells by complete blood count, once daily dosing 3 or 4 days; assay type: in vivo, Swiss-Webster mice; conditions: mice, oral gavage, blood 6 h after final dosing
Method: as §4

neutrophils [10] = test: Neutrophils (Mac-1+/Gr-1+) in blood by FACS analysis; assay type: in vivo, Swiss-Webster mice; conditions: mice, oral gavage, blood 6 h after final dosing
Method: as §5, §2

[11] = cisplatin 5 mg/kg i.v. day 0, compound 60 mg/kg oral gavage day 0, day 2, day 4
[12] = cisplatin 5 mg/kg i.v. single dose day 0 plus vehicle by oral gavage
[13] = 100 mg/kg once daily for 4 days
[14] = cisplatin 5 mg/kg i.v. day 0, compound 40 mg/kg oral gavage day 0, day 2, day 4

O=C(O)CNC(=O)c1nc(Cl)c2ccccc2c1O [Compound S, [(1-Chloro-4-hydroxy-isoquinoline-3-carbonyl)-amino]-acetic acid]
Lymphocytes (lymphocytes [1]; [11]): 16.2 10^3 cells/μl
Lymphocytes % Change from Control (lymphocytes [1]; [11]): 21%
total white blood cell levels in the cisplatin-treated animals (in words) ([2]; 5 mg/kg cisplatin, day 4): increased total white blood cell levels
Total WBC [2, 11]: 20.2 10^3 cells/μl
Total WBC % Change from Control [2, 11]: 19%
Neutrophils (neutrophils [3]; [11]): 2.2 10^3 cells/μl
Neutrophils % Change from Control (neutrophils [3]; [11]): 7%

N.N.[Cl][Pt][Cl] [cisplatin, reference compound]
Lymphocytes (lymphocytes [1]; [12]): 10.1 10^3 cells/μl
Lymphocytes % Change from Control (lymphocytes [1]; [12]): −24%
reduction of total white blood cell levels compared to non-treated control animals ([2]; 5 mg/kg cisplatin, day 4): 21%
Total WBC [2, 12]: 13.3 10^3 cells/μl
Total WBC % Change from Control [2, 12]: −21%
Neutrophils (neutrophils [3]; [12]): 1.6 10^3 cells/μl
Neutrophils % Change from Control (neutrophils [3]; [12]): −22%

Cc1nc(C(=O)NCC(=O)O)c(O)c2ccc(Oc3ccccc3)cc12 [Compound B, [(4-Hydroxy-1-methyl-7-phenoxy-isoquinoline-3-carbonyl)-amino]-acetic acid]
Percent Bone Marrow Neutrophils ([4]; 60 mg/kg once daily for 3 days): 34.7 % gated cells
Percent Bone Marrow Neutrophils Fold Increase Over Control ([4]; 60 mg/kg once daily for 3 days): 1.1 fold
Percent Bone Marrow Neutrophils [4, 13]: 33.6 % gated cells
Percent Bone Marrow Neutrophils Fold Increase Over Control [4, 13]: 1.3 fold
Lymphocytes (lymphocytes [1]; [14]): 14.7 10^3 cells/μl
Lymphocytes % Change from Control (lymphocytes [1]; [14]): 9%
Lymphocytes (lymphocytes [5]; 60 mg/kg once daily for 3 days): 7.40 10^3 cells/μl
Lymphocytes % Increase Over Control (lymphocytes [5]; 60 mg/kg once daily for 3 days): 82%
Lymphocytes (lymphocytes [5]; [13]): 9.18 10^3 cells/μl
Lymphocytes % Increase Over Control (lymphocytes [5]; [13]): 101%
Neutrophils (neutrophils [6]; 60 mg/kg once daily for 3 days): 1.28 10^3 cells/μl
Neutrophils % Increase Over Control (neutrophils [6]; 60 mg/kg once daily for 3 days): 110%
Neutrophils (neutrophils [6]; [13]): 0.96 10^3 cells/μl
Neutrophils % Increase Over Control (neutrophils [6]; [13]): 66%
total white blood cell levels in the cisplatin-treated animals (in words) ([2]; 5 mg/kg cisplatin, day 4): increased total white blood cell levels
Total WBC [2, 14]: 16.8 10^3 cells/μl
Total WBC % Change from Control ([2]; cisplatin 5 mg/kg i.v. day 0, compound 40 mg/kg oral gavage day 0, day 2, day 4, reduction not statistically significant): −1* %
Neutrophils (neutrophils [3]; [14]): 2.2 10^3 cells/μl
Neutrophils % Change from Control (neutrophils [3]; [14]): 7%
Blood HPCs ([7]; 60 mg/kg once daily for 3 days): 67 cells/μl
Blood HPCs Fold Increase Over Control ([7]; 60 mg/kg once daily for 3 days): 1.5 fold
Percent Blood HPCs ([7]; 60 mg/kg once daily for 3 days): 0.7 % gated cells
Percent Blood HPCs Fold Increase Over Control ([7]; 60 mg/kg once daily for 3 days): 1.1 fold
Blood HPCs [7, 13]: 126 cells/μl
Blood HPCs Fold Increase Over Control [7, 13]: 7.4 fold
Percent Blood HPCs [7, 13]: 1.2 % gated cells
Percent Blood HPCs Fold Increase Over Control [7, 13]: 3.8 fold
Percent Bone Marrow HPCs ([8]; 60 mg/kg once daily for 3 days): 6.3 % gated cells
Percent Bone Marrow HPCs Fold Increase Over Control ([8]; 60 mg/kg once daily for 3 days): 1.7 fold
Percent Bone Marrow HPCs [8, 13]: 7.0 % gated cells
Percent Bone Marrow HPCs Fold Increase Over Control [8, 13]: 1.6 fold
Total WBC ([9]; 60 mg/kg once daily for 3 days): 8.80 10^3 cells/μl
Total WBC % Increase Over Control ([9]; 60 mg/kg once daily for 3 days): 82%
Total WBC [9, 13]: 10.24 10^3 cells/μl
Total WBC % Increase Over Control [9, 13]: 94%
Blood Neutrophils (neutrophils [10]; 60 mg/kg once daily for 3 days): 126 cells/μl
Blood Neutrophils Fold Increase Over Control (neutrophils [10]; 60 mg/kg once daily for 3 days): 1.3 fold
Percent Blood Neutrophils (neutrophils [10]; 60 mg/kg once daily for 3 days): 1.2 % gated cells
Percent Blood Neutrophils Fold Increase Over Control (neutrophils [10]; 60 mg/kg once daily for 3 days): 0.9 fold
Blood Neutrophils (neutrophils [10]; [13]): 936 cells/μl
Blood Neutrophils Fold Increase Over Control (neutrophils [10]; [13]): 5.3 fold
Percent Blood Neutrophils (neutrophils [10]; [13]): 9.1 % gated cells
Percent Blood Neutrophils Fold Increase Over Control (neutrophils [10]; [13]): 2.7 fold
